Measured values from the kinase profiling compilation of Christmann-Franck et al. (2016).
One block for each compound: values may come before it.

Legend:
Assay in all cases: radiometric filter-binding kinase assay
[1] = molecular target: HIPK1 (human) (UniProt Q86Z02)
[2] = molecular target: PRKCZ (human) (UniProt Q05513)
[3] = molecular target: GSK3B (human) (UniProt P49841)
[4] = molecular target: HIPK2 (human) (UniProt Q9H2X6)
[5] = molecular target: YES1 (human) (UniProt P07947)
[6] = molecular target: PAK7 (human) (UniProt Q9P286)
[7] = molecular target: HIPK3 (human) (UniProt Q9H422)
[8] = molecular target: IGF1R (human) (UniProt P08069)
[9] = molecular target: BRSK2 (human) (UniProt Q8IWQ3)
[10] = molecular target: INSR (human) (UniProt P06213)
[11] = molecular target: MAPK11 (human) (UniProt Q15759)
[12] = molecular target: SRC (human) (UniProt P12931)
[13] = molecular target: MAPK13 (human) (UniProt O15264)
[14] = molecular target: PAK6 (human) (UniProt Q9NQU5)
[15] = molecular target: EPHB3 (human) (UniProt P54753)
[16] = molecular target: SYK (human) (UniProt P43405)
[17] = molecular target: PKN2 (human) (UniProt Q16513)
[18] = molecular target: PLK1 (human) (UniProt P53350)
[19] = molecular target: MAPK1 (human) (UniProt P28482)
[20] = system: PRKAA1 or PRKAA2 (rat); conditions: accession and sequence are those of the human protein
[21] = molecular target: MAP3K9 (human) (UniProt P80192)
[22] = molecular target: CSK (human) (UniProt P41240)
[23] = system: ROCK2 (rat); conditions: accession and sequence are those of the human protein
[24] = system: AKT2 (human), P31751 [S474D]
[25] = molecular target: CAMKK2 (human) (UniProt Q96RR4)
[26] = molecular target: RPS6KA5 KD1 KD2 (human) (UniProt O75582)
[27] = system: LCK (mouse); conditions: accession and sequence are those of the human protein
[28] = molecular target: MARK4 (human) (UniProt Q96L34)
[29] = molecular target: DAPK1 (human) (UniProt P53355); conditions: compound 10.0 µM
[30] = molecular target: MAP3K7 TAB1 (human) (UniProt Q15750+O43318); conditions: compound 10.0 µM
[31] = molecular target: EPHB1 (human) (UniProt P54762); conditions: compound 10.0 µM
[32] = molecular target: EPHA4 (human) (UniProt P54764); conditions: compound 10.0 µM
[33] = molecular target: CLK2 (human) (UniProt P49760); conditions: compound 10.0 µM
[34] = molecular target: EPHB4 (human) (UniProt P54760); conditions: compound 10.0 µM

Chain of GSK3B (human) (P49841 whole entry, looked up): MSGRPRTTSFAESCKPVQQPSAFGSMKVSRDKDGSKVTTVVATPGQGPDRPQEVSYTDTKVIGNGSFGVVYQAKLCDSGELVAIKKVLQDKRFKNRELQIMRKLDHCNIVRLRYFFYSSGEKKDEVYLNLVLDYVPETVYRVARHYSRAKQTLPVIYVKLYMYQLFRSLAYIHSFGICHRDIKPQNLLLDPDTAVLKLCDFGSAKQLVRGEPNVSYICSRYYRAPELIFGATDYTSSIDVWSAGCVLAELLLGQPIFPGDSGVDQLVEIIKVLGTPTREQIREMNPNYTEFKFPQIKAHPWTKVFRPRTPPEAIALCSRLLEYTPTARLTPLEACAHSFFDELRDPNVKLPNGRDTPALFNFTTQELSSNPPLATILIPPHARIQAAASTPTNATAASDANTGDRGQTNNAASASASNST
Chain of CAMKK2 (human) (Q96RR4 whole entry, looked up): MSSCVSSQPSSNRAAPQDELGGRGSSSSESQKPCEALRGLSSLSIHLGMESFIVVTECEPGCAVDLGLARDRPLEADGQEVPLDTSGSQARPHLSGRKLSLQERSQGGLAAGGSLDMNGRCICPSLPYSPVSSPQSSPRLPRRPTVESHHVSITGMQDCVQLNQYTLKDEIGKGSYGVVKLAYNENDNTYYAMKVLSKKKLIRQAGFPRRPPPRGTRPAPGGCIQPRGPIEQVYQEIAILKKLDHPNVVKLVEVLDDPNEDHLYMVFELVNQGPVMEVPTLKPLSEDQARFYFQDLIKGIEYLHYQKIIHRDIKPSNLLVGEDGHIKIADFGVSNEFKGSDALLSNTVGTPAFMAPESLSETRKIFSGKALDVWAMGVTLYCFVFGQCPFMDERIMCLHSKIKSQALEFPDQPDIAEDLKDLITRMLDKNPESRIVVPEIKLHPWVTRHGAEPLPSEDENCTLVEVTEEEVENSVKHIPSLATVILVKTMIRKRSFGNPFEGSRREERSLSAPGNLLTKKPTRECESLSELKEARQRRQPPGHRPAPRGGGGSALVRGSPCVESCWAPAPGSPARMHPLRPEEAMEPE
Chain of MAPK11 (human) (Q15759 whole entry, looked up): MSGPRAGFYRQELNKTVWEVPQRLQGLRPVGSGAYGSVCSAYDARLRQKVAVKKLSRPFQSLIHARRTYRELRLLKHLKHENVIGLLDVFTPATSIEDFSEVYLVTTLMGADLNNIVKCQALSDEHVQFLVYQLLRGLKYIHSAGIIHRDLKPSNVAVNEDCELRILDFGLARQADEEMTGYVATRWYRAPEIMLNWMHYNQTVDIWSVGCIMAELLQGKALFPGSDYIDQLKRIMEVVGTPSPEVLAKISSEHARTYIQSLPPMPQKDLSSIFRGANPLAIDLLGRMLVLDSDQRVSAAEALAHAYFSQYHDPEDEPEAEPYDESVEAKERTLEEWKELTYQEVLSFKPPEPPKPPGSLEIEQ
Chain of EPHB3 (human) (P54753 whole entry, looked up): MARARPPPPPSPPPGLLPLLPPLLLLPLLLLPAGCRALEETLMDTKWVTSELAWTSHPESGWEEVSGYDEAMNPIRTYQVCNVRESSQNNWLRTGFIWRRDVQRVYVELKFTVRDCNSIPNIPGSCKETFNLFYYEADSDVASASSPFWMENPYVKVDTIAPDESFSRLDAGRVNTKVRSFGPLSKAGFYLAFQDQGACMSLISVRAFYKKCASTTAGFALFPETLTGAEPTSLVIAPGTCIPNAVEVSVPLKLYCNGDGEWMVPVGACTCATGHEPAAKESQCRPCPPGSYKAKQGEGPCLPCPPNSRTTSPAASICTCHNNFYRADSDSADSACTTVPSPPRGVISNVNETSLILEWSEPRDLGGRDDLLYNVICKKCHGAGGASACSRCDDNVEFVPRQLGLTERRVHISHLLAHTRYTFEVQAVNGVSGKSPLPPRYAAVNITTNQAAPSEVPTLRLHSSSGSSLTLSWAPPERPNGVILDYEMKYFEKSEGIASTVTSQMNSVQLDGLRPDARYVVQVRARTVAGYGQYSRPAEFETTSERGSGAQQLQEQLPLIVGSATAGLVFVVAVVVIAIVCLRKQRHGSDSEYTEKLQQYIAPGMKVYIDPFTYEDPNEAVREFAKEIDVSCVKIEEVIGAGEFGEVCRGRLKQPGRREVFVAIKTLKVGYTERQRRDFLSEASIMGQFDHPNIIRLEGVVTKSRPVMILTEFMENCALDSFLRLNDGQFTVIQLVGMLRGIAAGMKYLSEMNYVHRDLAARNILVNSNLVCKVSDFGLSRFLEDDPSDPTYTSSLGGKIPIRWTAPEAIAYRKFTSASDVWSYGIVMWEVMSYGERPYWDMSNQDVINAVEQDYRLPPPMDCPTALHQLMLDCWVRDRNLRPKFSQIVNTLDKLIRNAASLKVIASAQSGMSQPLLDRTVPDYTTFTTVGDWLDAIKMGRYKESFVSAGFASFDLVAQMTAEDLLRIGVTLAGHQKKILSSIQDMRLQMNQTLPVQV
Chain of MAPK1 (human) (P28482 whole entry, looked up): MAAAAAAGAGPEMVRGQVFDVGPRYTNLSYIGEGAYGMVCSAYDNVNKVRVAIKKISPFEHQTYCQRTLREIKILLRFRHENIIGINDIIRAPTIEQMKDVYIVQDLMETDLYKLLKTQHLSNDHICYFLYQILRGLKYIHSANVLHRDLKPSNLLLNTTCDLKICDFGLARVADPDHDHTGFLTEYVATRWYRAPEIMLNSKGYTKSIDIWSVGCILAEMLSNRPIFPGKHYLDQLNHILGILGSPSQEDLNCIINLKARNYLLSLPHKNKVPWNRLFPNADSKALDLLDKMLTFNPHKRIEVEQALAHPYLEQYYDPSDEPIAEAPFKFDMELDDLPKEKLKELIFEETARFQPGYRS
Chain of PLK1 (human) (P53350 whole entry, looked up): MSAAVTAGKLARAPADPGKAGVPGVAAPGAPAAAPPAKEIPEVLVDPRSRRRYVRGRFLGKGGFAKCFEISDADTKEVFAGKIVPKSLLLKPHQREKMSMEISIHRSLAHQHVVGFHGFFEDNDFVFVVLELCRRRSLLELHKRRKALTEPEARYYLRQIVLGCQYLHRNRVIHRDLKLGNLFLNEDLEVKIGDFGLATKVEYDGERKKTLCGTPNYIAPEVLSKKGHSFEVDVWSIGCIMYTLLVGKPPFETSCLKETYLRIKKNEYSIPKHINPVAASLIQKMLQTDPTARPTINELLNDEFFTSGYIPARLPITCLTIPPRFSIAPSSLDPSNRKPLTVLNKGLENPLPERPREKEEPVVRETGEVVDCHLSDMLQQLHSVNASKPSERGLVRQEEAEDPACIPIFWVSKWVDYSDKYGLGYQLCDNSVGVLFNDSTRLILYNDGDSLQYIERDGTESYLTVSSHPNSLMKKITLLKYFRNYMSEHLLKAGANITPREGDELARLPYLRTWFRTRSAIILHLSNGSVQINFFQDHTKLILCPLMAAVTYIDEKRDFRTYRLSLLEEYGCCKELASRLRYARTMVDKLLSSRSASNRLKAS
Chain of PAK6 (human) (Q9NQU5 whole entry, looked up): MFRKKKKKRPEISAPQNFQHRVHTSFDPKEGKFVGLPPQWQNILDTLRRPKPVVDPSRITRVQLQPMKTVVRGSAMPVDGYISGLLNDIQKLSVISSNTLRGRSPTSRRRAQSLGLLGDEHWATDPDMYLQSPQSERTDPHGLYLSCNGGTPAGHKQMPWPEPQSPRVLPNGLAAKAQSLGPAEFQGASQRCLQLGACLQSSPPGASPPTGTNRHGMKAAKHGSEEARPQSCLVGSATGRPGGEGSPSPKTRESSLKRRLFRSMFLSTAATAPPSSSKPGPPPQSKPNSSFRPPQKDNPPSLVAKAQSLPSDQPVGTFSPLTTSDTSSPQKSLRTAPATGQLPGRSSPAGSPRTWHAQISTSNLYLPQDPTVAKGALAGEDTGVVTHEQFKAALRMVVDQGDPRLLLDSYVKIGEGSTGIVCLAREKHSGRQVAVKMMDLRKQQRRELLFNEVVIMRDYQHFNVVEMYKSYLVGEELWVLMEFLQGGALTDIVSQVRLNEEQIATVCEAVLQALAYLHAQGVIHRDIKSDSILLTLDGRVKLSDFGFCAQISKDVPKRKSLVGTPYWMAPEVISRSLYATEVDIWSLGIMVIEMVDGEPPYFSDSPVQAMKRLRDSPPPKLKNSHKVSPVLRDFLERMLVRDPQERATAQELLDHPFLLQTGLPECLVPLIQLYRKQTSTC
Chain of PAK7 (human) (Q9P286 whole entry, looked up): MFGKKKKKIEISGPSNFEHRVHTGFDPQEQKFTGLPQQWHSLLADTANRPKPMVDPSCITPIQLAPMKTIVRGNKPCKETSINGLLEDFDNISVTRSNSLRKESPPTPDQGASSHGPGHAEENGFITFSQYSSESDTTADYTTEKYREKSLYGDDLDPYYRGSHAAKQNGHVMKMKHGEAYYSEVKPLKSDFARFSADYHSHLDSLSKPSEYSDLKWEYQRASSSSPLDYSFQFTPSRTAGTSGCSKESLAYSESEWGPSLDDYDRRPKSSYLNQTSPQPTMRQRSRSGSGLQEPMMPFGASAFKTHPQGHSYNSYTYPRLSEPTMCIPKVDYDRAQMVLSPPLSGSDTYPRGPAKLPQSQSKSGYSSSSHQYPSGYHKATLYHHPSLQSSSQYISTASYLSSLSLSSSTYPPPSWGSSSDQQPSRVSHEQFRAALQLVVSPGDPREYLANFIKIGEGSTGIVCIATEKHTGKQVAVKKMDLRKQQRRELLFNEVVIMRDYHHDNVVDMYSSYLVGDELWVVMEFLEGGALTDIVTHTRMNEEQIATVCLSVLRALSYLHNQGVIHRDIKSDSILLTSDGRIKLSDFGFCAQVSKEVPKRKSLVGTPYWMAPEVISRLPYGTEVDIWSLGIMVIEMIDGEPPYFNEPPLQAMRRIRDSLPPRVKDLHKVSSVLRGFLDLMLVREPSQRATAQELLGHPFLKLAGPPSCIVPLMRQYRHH

residual activity ([1]; compound 1.0 µM): 91%
residual activity ([1]; compound 10.0 µM): 91%
residual activity ([2]; compound 1.0 µM): 70%
residual activity ([2]; compound 10.0 µM): 83%
residual activity ([3]; compound 1.0 µM): 110%
residual activity ([3]; compound 10.0 µM): 101%
residual activity ([4]; compound 1.0 µM): 81%
residual activity ([4]; compound 10.0 µM): 88%
residual activity ([5]; compound 1.0 µM): 107%
residual activity ([5]; compound 10.0 µM): 92%
residual activity ([6]; compound 1.0 µM): 119%
residual activity ([6]; compound 10.0 µM): 99%
residual activity ([7]; compound 1.0 µM): 111%
residual activity ([7]; compound 10.0 µM): 102%
residual activity ([8]; compound 1.0 µM): 86%
residual activity ([8]; compound 10.0 µM): 120%
residual activity ([9]; compound 1.0 µM): 91%
residual activity ([9]; compound 10.0 µM): 85%
residual activity ([10]; compound 1.0 µM): 88%
residual activity ([10]; compound 10.0 µM): 106%
residual activity ([11]; compound 1.0 µM): 91%
residual activity ([11]; compound 10.0 µM): 88%
residual activity ([12]; compound 1.0 µM): 98%
residual activity ([12]; compound 10.0 µM): 110%
residual activity ([13]; compound 1.0 µM): 96%
residual activity ([13]; compound 10.0 µM): 102%
residual activity ([14]; compound 1.0 µM): 93%
residual activity ([14]; compound 10.0 µM): 99%
residual activity ([15]; compound 1.0 µM): 112%
residual activity ([15]; compound 10.0 µM): 104%
residual activity ([16]; compound 1.0 µM): 84%
residual activity ([16]; compound 10.0 µM): 125%
residual activity ([17]; compound 1.0 µM): 91%
residual activity ([17]; compound 10.0 µM): 90%
residual activity ([18]; compound 1.0 µM): 81%
residual activity ([18]; compound 10.0 µM): 88%
residual activity ([19]; compound 1.0 µM): 94%
residual activity ([19]; compound 10.0 µM): 92%
residual activity ([20]; compound 1.0 µM): 94%
residual activity ([20]; compound 10.0 µM): 102%
residual activity ([21]; compound 1.0 µM): 100%
residual activity ([21]; compound 10.0 µM): 96%
residual activity ([22]; compound 1.0 µM): 98%
residual activity ([22]; compound 10.0 µM): 110%
residual activity ([23]; compound 1.0 µM): 96%
residual activity ([23]; compound 10.0 µM): 97%
residual activity ([24]; compound 1.0 µM): 79%
residual activity ([24]; compound 10.0 µM): 68%
residual activity ([25]; compound 1.0 µM): 91%
residual activity ([25]; compound 10.0 µM): 86%
residual activity ([26]; compound 1.0 µM): 78%
residual activity ([26]; compound 10.0 µM): 90%
residual activity ([27]; compound 1.0 µM): 116%
residual activity ([27]; compound 10.0 µM): 111%
residual activity ([28]; compound 1.0 µM): 98%
residual activity ([28]; compound 10.0 µM): 96%
Compound: CN1C(=O)[C@@H](Cc2c[nH]c3ccccc23)NC1=S

residual activity [29]: 112%
residual activity ([1]; compound 10.0 µM): 98%
residual activity ([2]; compound 10.0 µM): 112%
residual activity ([3]; compound 10.0 µM): 106%
residual activity [30]: 102%
residual activity ([5]; compound 10.0 µM): 110%
residual activity ([6]; compound 10.0 µM): 118%
residual activity [31]: 85%
residual activity ([7]; compound 10.0 µM): 103%
residual activity ([9]; compound 10.0 µM): 42%
residual activity ([10]; compound 10.0 µM): 99%
residual activity ([11]; compound 10.0 µM): 113%
residual activity ([13]; compound 10.0 µM): 106%
residual activity ([14]; compound 10.0 µM): 133%
residual activity ([15]; compound 10.0 µM): 100%
residual activity [32]: 75%
residual activity ([16]; compound 10.0 µM): 92%
residual activity ([17]; compound 10.0 µM): 105%
residual activity ([18]; compound 10.0 µM): 92%
residual activity ([19]; compound 10.0 µM): 82%
residual activity [33]: 126%
residual activity [34]: 89%
residual activity ([20]; compound 10.0 µM): 108%
residual activity ([21]; compound 10.0 µM): 78%
residual activity ([23]; compound 10.0 µM): 91%
residual activity ([24]; compound 10.0 µM): 49%
residual activity ([25]; compound 10.0 µM): 125%
residual activity ([26]; compound 10.0 µM): 62%
residual activity ([27]; compound 10.0 µM): 121%
residual activity ([28]; compound 10.0 µM): 52%
Compound: CCOC(=O)c1ccc(N2NC(=O)/C(=C/c3ccc([N+](=O)[O-])o3)C2=O)cc1

residual activity ([1]; compound 1.0 µM): 111%
residual activity ([1]; compound 10.0 µM): 105%
residual activity ([2]; compound 1.0 µM): 96%
residual activity ([2]; compound 10.0 µM): 103%
residual activity ([3]; compound 1.0 µM): 101%
residual activity ([3]; compound 10.0 µM): 93%
residual activity ([4]; compound 10.0 µM): 94%
residual activity ([5]; compound 1.0 µM): 113%
residual activity ([5]; compound 10.0 µM): 103%
residual activity ([6]; compound 1.0 µM): 104%
residual activity ([6]; compound 10.0 µM): 96%
residual activity ([7]; compound 1.0 µM): 98%
residual activity ([7]; compound 10.0 µM): 103%
residual activity ([8]; compound 1.0 µM): 111%
residual activity ([8]; compound 10.0 µM): 98%
residual activity ([9]; compound 1.0 µM): 106%
residual activity ([9]; compound 10.0 µM): 87%
residual activity ([10]; compound 1.0 µM): 101%
residual activity ([10]; compound 10.0 µM): 97%
residual activity ([11]; compound 1.0 µM): 113%
residual activity ([11]; compound 10.0 µM): 109%
residual activity ([12]; compound 1.0 µM): 94%
residual activity ([12]; compound 10.0 µM): 83%
residual activity ([13]; compound 1.0 µM): 100%
residual activity ([13]; compound 10.0 µM): 103%
residual activity ([14]; compound 1.0 µM): 99%
residual activity ([14]; compound 10.0 µM): 99%
residual activity ([15]; compound 1.0 µM): 102%
residual activity ([15]; compound 10.0 µM): 118%
residual activity ([16]; compound 1.0 µM): 101%
residual activity ([16]; compound 10.0 µM): 107%
residual activity ([17]; compound 1.0 µM): 94%
residual activity ([17]; compound 10.0 µM): 90%
residual activity ([18]; compound 1.0 µM): 106%
residual activity ([18]; compound 10.0 µM): 102%
residual activity ([19]; compound 1.0 µM): 104%
residual activity ([19]; compound 10.0 µM): 97%
residual activity ([20]; compound 1.0 µM): 101%
residual activity ([21]; compound 1.0 µM): 105%
residual activity ([21]; compound 10.0 µM): 89%
residual activity ([22]; compound 1.0 µM): 119%
residual activity ([22]; compound 10.0 µM): 119%
residual activity ([23]; compound 1.0 µM): 93%
residual activity ([23]; compound 10.0 µM): 90%
residual activity ([24]; compound 10.0 µM): 94%
residual activity ([25]; compound 1.0 µM): 127%
residual activity ([25]; compound 10.0 µM): 122%
residual activity ([26]; compound 1.0 µM): 109%
residual activity ([26]; compound 10.0 µM): 95%
residual activity ([27]; compound 1.0 µM): 102%
residual activity ([27]; compound 10.0 µM): 97%
residual activity ([28]; compound 1.0 µM): 98%
residual activity ([28]; compound 10.0 µM): 89%
Compound: O=C(O)c1cc(N=Nc2ccc(S(=O)(=O)Nc3ccccn3)cc2)ccc1O

residual activity ([2]; compound 1.0 µM): 77%
residual activity ([2]; compound 10.0 µM): 83%
residual activity ([3]; compound 1.0 µM): 99%
residual activity ([3]; compound 10.0 µM): 92%
residual activity ([4]; compound 10.0 µM): 92%
residual activity ([5]; compound 1.0 µM): 85%
residual activity ([5]; compound 10.0 µM): 96%
residual activity ([6]; compound 1.0 µM): 97%
residual activity ([6]; compound 10.0 µM): 108%
residual activity ([8]; compound 1.0 µM): 113%
residual activity ([8]; compound 10.0 µM): 100%
residual activity ([9]; compound 1.0 µM): 79%
residual activity ([9]; compound 10.0 µM): 94%
residual activity ([10]; compound 1.0 µM): 96%
residual activity ([10]; compound 10.0 µM): 103%
residual activity ([11]; compound 1.0 µM): 94%
residual activity ([11]; compound 10.0 µM): 95%
residual activity ([12]; compound 1.0 µM): 94%
residual activity ([12]; compound 10.0 µM): 99%
residual activity ([13]; compound 1.0 µM): 94%
residual activity ([13]; compound 10.0 µM): 98%
residual activity ([14]; compound 1.0 µM): 87%
residual activity ([14]; compound 10.0 µM): 98%
residual activity ([15]; compound 1.0 µM): 81%
residual activity ([16]; compound 1.0 µM): 92%
residual activity ([16]; compound 10.0 µM): 116%
residual activity ([17]; compound 1.0 µM): 87%
residual activity ([17]; compound 10.0 µM): 82%
residual activity ([18]; compound 1.0 µM): 97%
residual activity ([18]; compound 10.0 µM): 93%
residual activity ([19]; compound 1.0 µM): 80%
residual activity ([19]; compound 10.0 µM): 88%
residual activity ([20]; compound 1.0 µM): 102%
residual activity ([20]; compound 10.0 µM): 95%
residual activity ([22]; compound 1.0 µM): 101%
residual activity ([22]; compound 10.0 µM): 104%
residual activity ([23]; compound 1.0 µM): 83%
residual activity ([23]; compound 10.0 µM): 96%
residual activity ([24]; compound 1.0 µM): 83%
residual activity ([24]; compound 10.0 µM): 97%
residual activity ([25]; compound 1.0 µM): 79%
residual activity ([25]; compound 10.0 µM): 95%
residual activity ([26]; compound 1.0 µM): 80%
residual activity ([26]; compound 10.0 µM): 87%
residual activity ([27]; compound 1.0 µM): 74%
residual activity ([27]; compound 10.0 µM): 95%
Compound: O=C1NC(=S)N[C@@H]1Cc1c[nH]c2ccccc12
